# Laboratory results taken from patent publication US12138320B2, “Composition and methods for tumor imaging and treatment” (The University of Chicago, priority 2020, dated 2024).
# How the values were obtained:
# [1] = system: other detected serine hydrolase targets; experiment: Family-wide gel-based profiling of serine hydrolases in MDA-MB231 and PC3 cells (selectivity); assay type: cell-based, human; conditions: live cells
# Procedure: Proteome Preparation: Human PC3 and MDA-MB231 cells were grown in Roswell Park Memorial Institute (RPMI) medium and Dulbecco's Modified Eagle Medium (DMEM), respectively, supplemented with 10% fetal bovine serum (FBS) and 2 mM L-glutamine, and cultured in a humidified 5% CO2 incubator at 37° C. Cells were washed twice with phosphate buffered saline (PBS, pH 7.5), collected by scraping, resuspended in 0.2 ml PBS, sonicated, and fractionated via centrifugation (100,000×g, 45 min) into a pellet (containing membrane proteins) and supernatant (containing soluble proteins). […] Protein concentrations were determined using a Bradford protein assay kit (Bio-Rad, Hercules, California, United States of America)). […]
# Gel-based Activity Profiling: Cell lysates were treated with 1 μM fluorophosphonate-rhodamine (FP-rho) for 30 min at room temperature (50 μL total reaction volume). Reactions were quenched with one volume of standard 4× sodium dodecyl sulfate/polyacrylamide gel electrophoresis (SDS/PAGE) reducing sample buffer, resolved on 10% acrylamide SDS/PAGE gels, and visualized in-gel with a fluorescence scanner sold under the tradename CHEMIDOC™ MP (Bio-Rad, Hercules, California, United States of America). Densitometric quantification of band intensities were used to calculate the percent inhibition via JW199. […]
# NCEH1 [2] = target: T1, NCEH1 (Homo sapiens, UniProt Q6PIU2); experiment: Gel-based competitive ABPP (FP-Rho) of cancer cells treated in situ (live cells); assay type: cell-based; conditions: for potency against NCEH1 compared to JW199: MDA-MB231 cells treated in situ, 0-25 μM (FIG. 5B)
# T1 construct: serine hydrolase activity in membrane proteome fractions of MDA-MB231 breast cancer cells treated with the indicated concentrations; endogenous in cells; host or cells: PC3 prostate cancer cells; MDA-MB231 breast cancer cells
# T1 sequence (Q6PIU2 1-408): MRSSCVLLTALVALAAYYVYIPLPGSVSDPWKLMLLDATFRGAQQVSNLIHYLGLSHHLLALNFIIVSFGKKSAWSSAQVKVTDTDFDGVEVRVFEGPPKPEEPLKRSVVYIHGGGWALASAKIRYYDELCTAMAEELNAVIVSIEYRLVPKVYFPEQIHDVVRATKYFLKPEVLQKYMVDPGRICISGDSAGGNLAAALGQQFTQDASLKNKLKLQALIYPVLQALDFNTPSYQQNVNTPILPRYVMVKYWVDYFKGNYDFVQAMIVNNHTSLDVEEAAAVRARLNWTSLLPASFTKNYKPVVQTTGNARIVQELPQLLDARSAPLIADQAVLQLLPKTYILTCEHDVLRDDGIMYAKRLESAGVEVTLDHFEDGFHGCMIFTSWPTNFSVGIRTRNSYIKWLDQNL
# Procedure: Proteome Preparation: Human PC3 and MDA-MB231 cells were grown in Roswell Park Memorial Institute (RPMI) medium and Dulbecco's Modified Eagle Medium (DMEM), respectively, supplemented with 10% fetal bovine serum (FBS) and 2 mM L-glutamine, and cultured in a humidified 5% CO2 incubator at 37° C. Cells were washed twice with phosphate buffered saline (PBS, pH 7.5), collected by scraping, resuspended in 0.2 ml PBS, sonicated, and fractionated via centrifugation (100,000×g, 45 min) into a pellet (containing membrane proteins) and supernatant (containing soluble proteins). For murine proteomes, mouse tissues were Dounce-homogenized on ice in cold PBS, followed by a low-speed spin (1,400×g, 5 min) to remove debris. After sonication, the membrane and soluble proteomes were fractionated as described above. All sample pellets were washed and resuspended in PBS via sonication. Protein concentrations were determined using a Bradford protein assay kit (Bio-Rad, Hercules, California, United States of America)). Samples were stored at −80° C. until use.
# Cellular JW199 Treatments: JW199 was dissolved in dimethyl sulfoxide (DMSO) vehicle, which was diluted into media or buffer before addition to cells or proteomes, respectively. For in vitro proteome experiments, the final DMSO concentration was 4%. For live cell (in situ) treatments, 2×10^6 cells were seeded in 6 cm dishes (100% confluency) 24 hours prior to JW199 treatment in serum-free media. At the end of the experiment, cells were washed and collected, as described above, for gel-based activity profiling.
# Gel-based Activity Profiling: Cell lysates were treated with 1 μM fluorophosphonate-rhodamine (FP-rho) for 30 min at room temperature (50 μL total reaction volume). Reactions were quenched with one volume of standard 4× sodium dodecyl sulfate/polyacrylamide gel electrophoresis (SDS/PAGE) reducing sample buffer, resolved on 10% acrylamide SDS/PAGE gels, and visualized in-gel with a fluorescence scanner sold under the tradename CHEMIDOC™ MP (Bio-Rad, Hercules, California, United States of America). Densitometric quantification of band intensities were used to calculate the percent inhibition via JW199. 50% inhibitory concentration (IC50) values were determined from dose-response curves constructed in GraphPad Prism software from three independent replicates for each inhibitor concentration. For competitive ABPP with JW576, tumor lysates were treated with 1 μM JW576 for 30 min at 37° C. (50 μL total reaction volume). Competitive ABPP was then conducted as described above. NCEH1 activity was calculated by densitometric quantification (ImageJ software; National Institutes of Health (NIH), Bethesda, Maryland, United States of America) of JW576-labeled band intensity (BODIPY fluorescence) from three independent replicates.
# NCEH1 [3] = target: T2, NCEH1 (Mus musculus, UniProt Q8BLF1); experiment: In vivo competition: oral JW480 pre-treatment, then i.v. [18F]JW199 and PET-CT
# T2 construct: For murine proteomes, mouse tissues were Dounce-homogenized on ice in cold PBS; from tissue; host or cells: athymic nude mice: heart, kidney, lung, liver, brain, spleen and other organs
# T2 sequence (Q8BLF1 1-408): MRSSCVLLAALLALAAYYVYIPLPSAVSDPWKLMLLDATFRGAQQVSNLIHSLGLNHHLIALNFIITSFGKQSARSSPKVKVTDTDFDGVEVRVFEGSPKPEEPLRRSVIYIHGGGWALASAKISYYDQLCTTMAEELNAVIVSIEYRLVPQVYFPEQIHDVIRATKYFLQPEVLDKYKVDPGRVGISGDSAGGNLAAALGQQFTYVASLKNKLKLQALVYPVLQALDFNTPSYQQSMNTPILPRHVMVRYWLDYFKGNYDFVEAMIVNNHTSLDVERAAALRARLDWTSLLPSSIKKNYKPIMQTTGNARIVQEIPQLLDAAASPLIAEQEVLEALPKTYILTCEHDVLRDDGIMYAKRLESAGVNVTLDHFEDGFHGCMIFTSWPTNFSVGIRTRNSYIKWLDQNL
# Procedure: In vivo microPET/CT imaging: All imaging was performed by the Integrated Small Animal Imaging Research Resource (iSAIRR) at the University of Chicago (Chicago, Illinois, United States of America) on a β-Cube and X-Cube (Molecubes NV, Ghent, Belgium). Athymic nude mice (males and females, aged 6 to 8 weeks; HSD strain, Harlan-Envigo, Indianapolis, Indiana, United States of America) were anesthetized via inhalation with 1.5-2% isoflurane and injected with approximately 150 μCi (5.55 Megabecquerel (MBq)) of [^18F]JW199 in 150 μL of physiologic saline through the lateral tail vein, followed by awake incubation for 1 hour and 45 minutes. MicroCT images were acquired using the general purpose protocol, with energy of 50 KeV and a tube current of 100 μA. Respiration rate and body temperature of the animal were constantly monitored during the entire scanning period with the p-Cube and X-Cube onboard monitoring system. A 1 hr dynamic PET acquisition was started 2 hours after [^18F]JW199 injection. Dynamic reconstruction was performed for 6 frames of 10 minutes each using a three-dimensional (3D) OSEM algorithm with 400 μm isometric voxel size. For competition studies, mice were pretreated with either 80 mg/kg JW480 or vehicle (polyethylene glycol 300 (PEG300)) via oral gavage, followed 4 hours later by dosing with [^18F]JW199 and imaging as described. For the MDA-MB231 study, [^18F]JW199 injection was followed immediately by dynamic PET acquisition (90 min) and microCT scanning as detailed above. Dynamic PET image reconstruction included 9 frames of 10 minutes each.
# Dynamic reconstruction was performed using a three-dimensional OSEM algorithm with 400 μm isometric voxel size. […] 3D regions of interest (ROIs) were drawn and standardized uptake values (SUVs) and percent injected dose per cubic centimeter of tissue (% ID/cc) were calculated for each ROI and time point. % ID/cc was calculated as a ratio of tissue radioactivity concentration (mCi/g) at time of scan to total injected activity (millicurie (mCi)) at time of scan.
# NCEH1 [4] = target: T2, NCEH1; experiment: Gel-based competitive ABPP of murine tissue membrane proteomes after JW480 pre-treatment; assay type: in vivo; conditions: JW480 80 mg/kg; brain, heart, kidney, lung, liver, spleen membrane proteomes
# Excerpt: FIGS. 9A and 9B: Gel-based competitive activity-based protein profiling (ABPP) profiles of several murine membrane proteomes following treatment with fluorine-18-labeled 2-isopropylphenyl-(4-(2-fluoroethoxy)phenethyl)carbamate ([^18F]JW199) with and without 2-isopropylphenyl)-(2-(naphthalen-2-yl)ethyl)carbamate (JW480; 80 milligrams per kilogram (mg/kg)). FIG. 9A is a schematic drawing showing the chemical structure of JW480. FIG. 9B is a composite gel image of the ABPP profiles of the murine membrane proteomes from brain, heart, kidney, lung, liver and spleen following treatment with [^18F]JW199 with or without JW480.
# Proteome Preparation: Human PC3 and MDA-MB231 cells were grown in Roswell Park Memorial Institute (RPMI) medium and Dulbecco's Modified Eagle Medium (DMEM), respectively, supplemented with 10% fetal bovine serum (FBS) and 2 mM L-glutamine, and cultured in a humidified 5% CO2 incubator at 37° C. […] Protein concentrations were determined using a Bradford protein assay kit (Bio-Rad, Hercules, California, United States of America)). […]
# Gel-based Activity Profiling: Cell lysates were treated with 1 μM fluorophosphonate-rhodamine (FP-rho) for 30 min at room temperature (50 μL total reaction volume). […] Densitometric quantification of band intensities were used to calculate the percent inhibition via JW199. […]
compound,measurement,setting,value
"CC(C)c1ccccc1OC(=O)NCCc1ccc(OCCF)cc1 [JW199, 2-isopropylphenyl-(4-(2-fluoroethoxy)phenethyl)carbamate]",selectivity over other detected serine hydrolase targets,[1],"> 1,000 fold"
same,"IC50 values, inhibition of NCEH1 in live cells","NCEH1 [2]; in situ, MDA-MB231 and PC3 cells",low nM range
"CC(C)c1ccccc1OC(=O)NCCc1ccc(OCCCF)cc1 [JW245, 2-isopropylphenyl-(4-(3-fluoropropoxy)phenethyl)carbamate]",potency against NCEH1 compared to JW199,NCEH1 [2],less potent
"CC(C)c1ccccc1OC(=O)NCCNC(=O)c1ccc2cc(OCCF)ccc2c1 [JW291, 2-isopropylphenyl (2-(6-(2-fluoroethoxy)-2-naphthamido)ethyl)carbamate]",potency against NCEH1 compared to JW199,NCEH1 [2],less potent
"CC(C)c1ccccc1OC(=O)NCCc1ccc2ccccc2c1 [JW480, 2-isopropylphenyl-(2-(naphthalen-2-yl)ethyl)carbamate]",effect of pre-treatment on radioactivity in urine and brain,"NCEH1 [3]; JW480 80 mg/kg oral, 4 hours before tracer",slightly elevated radioactivity
same,"effect of pre-treatment on [18F]JW199 radiotracer signal in heart, lung and kidney","NCEH1 [3]; JW480 80 mg/kg oral, 4 hours before tracer, 3 hours post injection",significantly diminished radiotracer signal
same,[18F]JW199 accumulation in kidneys and heart of competitor-treated mouse (PET-CT images),"NCEH1 [3]; JW480 oral, then i.v. tracer",visibly decreased
same,inhibition of NCEH1 in tissues of pre-treated mice,NCEH1 [4],specific and significant inhibition
